Assay results from publication PMC5445237 (CPT: Pharmacometrics & Systems Pharmacology, 2017).
Read-outs that look alike come from different tables or passages of the source.

What was measured:
[1] = Population pharmacokinetic analysis of apixaban; type: in vivo, human; details: for CL renal: male, human, plasma, oral
[2] = Simulation of apixaban steady-state exposure in VTE treatment population; set-up: species or system human
[3] = Exploratory exposure-response evaluation for bleeding and efficacy endpoints; type: in vivo, human
[4] = cited from earlier work; for increase in apixaban exposure: phase I study, regression analysis
[5] = test system: cytochrome P450 3A4 (CYP3A4); details: minor contributions from CYP1A2, 2C8, 2C9, 2C19, 2J2; cited from earlier work
[6] = cited from earlier work
[7] = among 522 subjects from the acute VTE treatment studies

## COc1ccc(-n2nc(C(N)=O)c3c2C(=O)N(c2ccc(N4CCCCC4=O)cc2)CC3)cc1 [apixaban, Apixaban]
[1]; 50-kg subject
  reduction in Vc/F vs 85 kg reference subject: 24%
[1]; 120-kg subject
  increase in Vc/F vs 85 kg reference subject: 20%
[1]; age, sex, Asian race (also strong or moderate CYP3A4/P-gp inhibitors)
  impact on apixaban exposure: less than 25%
[1]; expected from 27% renal contribution, renal clearance close to zero
  increase in AUC expected in severe renal impairment: ~40%
[1]; final model
  Asian subjects effect on CL/F (covariate parameter, fractional change): −0.168
  Female effect on CLNR/F (covariate parameter, fractional change): −0.223
  IIV (interindividual variability, CV%) of CL/F: 33.1%
  IIV (interindividual variability, CV%) of ka: 50.2%
  Q/F (apparent intercompartmental clearance): 1.62 L/h
  Vp/F (apparent volume of peripheral compartment): 19.8 L
[1]; final model, reference VTE treatment subject
  Vc/F (apparent volume of central compartment): 32.1 L
[1]; final population PK model, evening dose
  ka, an evening dose: 0.239 h⁻¹
[1]; final population PK model, morning or afternoon dose
  ka: 0.440 h⁻¹
[1]; CLNR/F (apparent nonrenal clearance), final model, reference VTE treatment subject
  CL renal: 42 mL/min
[1]; CLR/F (apparent renal clearance), final model, reference VTE treatment subject (60 years, non-Asian male, 85 kg, cCrCL 100 mL/min)
  CL renal: 30.5 mL/min
[1]; predicted, 40-year-old male, no change in apparent renal clearance
  lower daily AUC vs 60-year-old reference subject: ~6%
[1]; predicted, 80-year-old male, no change in apparent renal clearance
  higher daily AUC vs 60-year-old reference subject: 5%
[1]; predicted, Asian subjects
  higher AUC compared to non-Asian subjects: 20%
[1]; predicted, female subjects
  higher AUC than male subjects: ~15%
[1]; predicted, mild renal impairment (cCrCL of 65 mL/min)
  higher AUC than reference subject with normal renal function: ~17%
[1]; predicted, severe renal impairment (cCrCL of 15 mL/min)
  higher AUC (exposure) than reference subject: 56%
[1]; severe renal impairment
  decrease in CL/F: 36%
[2]; 5-mg b.i.d., VTE treatment population vs NVAF subjects
  predicted median daily AUCss lower than in NVAF subjects: about 25%
[2]; predicted, VTE treatment subjects
  fluctuation between peak and trough concentrations: ~2 fold
[3]; among 178 subjects from the AMPLIFY-EXT study
  bleeding events (major or clinically relevant nonmajor): eight
[3]; [7]
  VTE/VTE-related death events: five
  bleeding events (major or clinically relevant nonmajor): 25
[4]
  half-life: ~12 h
  lower CL/F, NVAF subjects compared to phase I subjects: 14%
  oral bioavailability: ~50%
  renal clearance as share of total systemic clearance: ~27%
  volume of distribution from phase I studies: ~21 L
[4]; healthy subjects, strong inducer of CYP3A4 and P-gp
  decrease in exposure after coadministration with rifampin: 50%
[4]; healthy subjects, strong inhibitor of CYP3A4 and P-gp
  increase in exposure after coadministration with ketoconazole: 2 fold
[4]; nonvalvular atrial fibrillation subjects, 5 mg b.i.d.
  predicted median daily AUCss in NVAF subjects: 3,280 ng*hr/mL
[4]; phase I clinical studies
  exposure higher following coadministration with ketoconazole than apixaban alone: ~100%
[4]; phase I studies
  higher AUC, females compared to males: 15%
  higher AUC, older subjects (>=65 years) compared to younger subjects (18-40 years): 32%
[4]; mild renal impairment
  increase in apixaban exposure: ~16%
[4]; moderate renal impairment
  increase in apixaban exposure: ~29%
[4]; severe renal impairment
  increase in apixaban exposure: ~44%
[5]
  metabolism by CYP3A4: predominantly metabolized
[6]; AMPLIFY study
  adjudicated major bleeding (primary safety endpoint) vs enoxaparin/warfarin: statistically superior
[6]; AMPLIFY-EXT
  number of major bleeding events, apixaban and placebo groups: low and similar
